We go through 29 molecules from US11634396B2 (priority 2021, dated 2023).

Structures can show the parent of a compound that is named as a salt. Where two headings read alike, the source gives them in different places.

This assay addresses human mOR (Homo sapiens (Human), UniProt P35372). The experiment in a line: cell-based.
The mark [1] stands for this setting: CHO Tag-lite human mOR stable cell line, forskolin 4 μM and DAMGO at EC90, read-out: mOR cAMP Antagonist Assay IC50.

human mOR, sequence (P35372 whole entry): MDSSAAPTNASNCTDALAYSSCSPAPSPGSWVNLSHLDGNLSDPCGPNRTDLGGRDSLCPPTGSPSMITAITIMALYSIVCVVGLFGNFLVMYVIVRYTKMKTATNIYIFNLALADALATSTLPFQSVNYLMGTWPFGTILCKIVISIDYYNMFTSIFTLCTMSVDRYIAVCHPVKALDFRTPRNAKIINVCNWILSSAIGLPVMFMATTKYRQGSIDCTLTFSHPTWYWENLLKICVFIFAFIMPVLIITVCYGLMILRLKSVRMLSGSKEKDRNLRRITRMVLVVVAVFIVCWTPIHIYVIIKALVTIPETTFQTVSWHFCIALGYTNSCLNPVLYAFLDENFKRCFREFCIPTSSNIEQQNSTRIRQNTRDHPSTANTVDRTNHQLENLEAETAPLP

What is called IC50 is the concentration needed to halve the response being measured. For the molecule `CNC(=O)c1ccc(C[C@@H](CNC(=O)CC(c2ccncc2)C2(C(F)(F)F)CC2)N(C)C)c(C)c1` (stereo partly drawn) [Compound 134, 4-((2S)-2-(dimethylamino)-3-(3-(pyridin-4-yl)-3-(1-(trifluoromethyl)cyclopropyl)propanamido)propyl)-N,3-dimethylbenzamide], the IC50 is below 300 nM.
As to `CNC(=O)c1ccc(C[C@@H](CNC(=O)C[C@H](c2cnc(C)nc2)C2(C(F)(F)F)CC2)N(C)C)c(C)c1` [Compound 135, 4-((S)-2-(dimethylamino)-3-((R)-3-(2-methylpyrimidin-5-yl)-3-(1-(trifluoromethyl)cyclopropyl)propanamido)propyl)-N,3-dimethylbenzamide], the 50% inhibitory concentration (IC50) (read-out: mOR cAMP Antagonist Assay IC50) was above 3000 nM.
In the case of `CNC(=O)c1ccc(C[C@@H](CNC(=O)C[C@H](CC2CC2)c2ccccn2)N(C)C)c(C)c1` [Compound 139, 4-((S)-3-((S)-4-cyclopropyl-3-(pyridin-2-yl)butanamido)-2-(dimethylamino)propyl)-N,3-dimethylbenzamide], the IC50 was above 3000 nM.
The same measure, in the same setting: the value for `CNC(=O)c1ccc(C[C@@H](CNC(=O)C[C@@H](CC(C)C)c2ccccn2)N(C)C)c(C)c1` [Compound 140, 4-((S)-2-(dimethylamino)-3-((R)-5-methyl-3-(pyridin-2-yl)hexanamido)propyl)-N,3-dimethylbenzamide] was above 3000 nM; that for `CNC(=O)c1cc(C)c(C[C@@H](CNC(=O)C[C@H](c2ccccc2)C2(C(F)(F)F)CC2)N(C)C)cc1F` [Compound 144, 4-((S)-2-(dimethylamino)-3-((R)-3-phenyl-3-(1-(trifluoromethyl)cyclopropyl)propanamido)propyl)-2-fluoro-N,5-dimethylbenzamide] was above 3000 nM.
The same measure, in the same setting: the value for `CNC(=O)c1ccc(C[C@@H](CNC(=O)C[C@@H](c2cncc(F)c2)C(C)(C)C)N(C)C)cc1F` [Compound 151, 4-((S)-2-(dimethylamino)-3-((R)-3-(5-fluoropyridin-3-yl)-4,4-dimethylpentanamido)propyl)-2-fluoro-N-methylbenzamide] was 300 to 3000 nM.
Same read-out and setting: the value for `CNC(=O)c1ccc(C[C@@H](CNC(=O)C[C@H](c2cnc(C)nc2)C2(C(F)(F)F)CC2)N(C)C)cc1F` [Compound 152, 4-((S)-2-(dimethylamino)-3-((R)-3-(2-methylpyrimidin-5-yl)-3-(1-(trifluoromethyl)cyclopropyl)propanamido)propyl)-2-fluoro-N-methylbenzamide] was above 3000 nM.
Turning to `CNC(=O)c1ccc(C[C@@H](CNC(=O)C[C@@H](c2ccccn2)C2(C(F)(F)F)CC2)N(C)C)cc1F` [Compound 153, 4-((S)-2-(dimethylamino)-3-((R)-3-(pyridin-2-yl)-3-(1-(trifluoromethyl)cyclopropyl)propanamido)propyl)-2-fluoro-N-methylbenzamide], the IC50 is above 3000 nM.
Same read-out and setting: next, `CNC(=O)c1ccc(C[C@@H](CNC(=O)C[C@@H](c2ccccc2)C2(C(F)(F)F)CC2)N(C)C)cc1F` [Compound 154, 4-((S)-2-(dimethylamino)-3-((S)-3-phenyl-3-(1-(trifluoromethyl)cyclopropyl)propanamido)propyl)-2-fluoro-N-methylbenzamide]: below 300 nM.
On to `CCN(CC)[C@H](CNC(=O)C[C@@H](c1ccccc1)C(C)(C)C)Cc1ccc(C(=O)NC)c(F)c1` [Compound 166, 4-((S)-2-(diethylamino)-3-((R)-4,4-dimethyl-3-phenylpentanamido)propyl)-2-fluoro-N-methylbenzamide], for which the IC50 was below 300 nM.
With `Cc1ncc([C@@H](CC(=O)NC[C@H](Cc2ccc3[nH]c(=O)oc3c2C)N(C)C)C2(C(F)(F)F)CC2)cn1` [Compound 169, (R)-N-((S)-2-(dimethylamino)-3-(7-methyl-2-oxo-2,3-dihydrobenzo[d]oxazol-6-yl)propyl)-3-(2-methylpyrimidin-5-yl)-3-(1-(trifluoromethyl)cyclopropyl)propanamide], the IC50 is above 3000 nM.
On the same count and under the same terms, the value for `Cc1c(C[C@@H](CNC(=O)C[C@H](c2ccncc2)C2(C(F)(F)F)CC2)N(C)C)ccc2[nH]c(=O)oc12` [Compound 170, (R)-N-((S)-2-(dimethylamino)-3-(7-methyl-2-oxo-2,3-dihydrobenzo[d]oxazol-6-yl)propyl)-3-(pyridin-4-yl)-3-(1-(trifluoromethyl)cyclopropyl)propanamide] was below 300 nM.
In the case of `CN(C)[C@H](CNC(=O)C[C@@H](c1cccnc1)C1(C(F)(F)F)CC1)Cc1ccc2[nH]c(=O)oc2c1` [Compound 176, (S)-N-((S)-2-(dimethylamino)-3-(2-oxo-2,3-dihydrobenzo[d]oxazol-6-yl)propyl)-3-(pyridin-3-yl)-3-(1-(trifluoromethyl)cyclopropyl)propanamide], the half-maximal inhibitory concentration (IC50) under setting [1] was below 300 nM.
`Cc1c(C[C@@H](CNC(=O)C[C@@H](CC2CC2)c2cccnc2)N(C)C)ccc2c1CC(=O)N2` [Compound 179, (R)-4-cyclopropyl-N-((S)-2-(dimethylamino)-3-(4-methyl-2-oxoindolin-5-yl)propyl)-3-(pyridin-3-yl)butanamide]: the IC50 is below 300 nM.
Turning to `Cc1c(C[C@@H](CNC(=O)C[C@H](c2cccnc2)C2(C(F)(F)F)CC2)N(C)C)ccc2c1CC(=O)N2` [Compound 180, (R)-N-((S)-2-(dimethylamino)-3-(4-methyl-2-oxoindolin-5-yl)propyl)-3-(pyridin-3-yl)-3-(1-(trifluoromethyl)cyclopropyl)propanamide], the IC50 was below 300 nM.
With `CN(C)[C@H](CNC(=O)CC(c1ncccn1)C1(C(F)(F)F)CC1)Cc1ccc2c(c1)CC(=O)N2` (stereo partly drawn) [Compound 188, N-((S)-2-(dimethylamino)-3-(2-oxoindolin-5-yl)propyl)-3-(pyrimidin-2-yl)-3-(1-(trifluoromethyl)cyclopropyl)propenamide], the IC50 under setting [1] was in the range of 300 to 3000 nM.
Regarding `CN(C)[C@H](CNC(=O)C[C@H](c1ccccc1)C1(C(F)(F)F)CC1)Cc1ccc2c(c1)CC(=O)N2` [Compound 189, (R)-N-((S)-2-(dimethylamino)-3-(2-oxoindolin-5-yl)propyl)-3-phenyl-3-(1-(trifluoromethyl)cyclopropyl)propanamide], the IC50 is below 300 nM.
Consider `CN(C)[C@H](CNC(=O)C[C@@H](c1ccccc1)C1(C(F)(F)F)CC1)Cc1ccc2[nH]ncc2c1` [Compound 190, (S)-N-((S)-2-(dimethylamino)-3-(1H-indazol-5-yl)propyl)-3-phenyl-3-(1-(trifluoromethyl)cyclopropyl)propanamide], for which, under setting [1], the IC50 is 300 to 3000 nM.
Regarding `CN(C)[C@H](CNC(=O)C[C@H](c1ccncc1)C1(C(F)(F)F)CC1)Cc1ccc2[nH]ncc2c1Cl` [Compound 191, (R)-N-((S)-3-(4-chloro-1H-indazol-5-yl)-2-(dimethylamino)propyl)-3-(pyridin-4-yl)-3-(1-(trifluoromethyl)cyclopropyl)propanamide], under setting [1], the IC50 was below 300 nM.
As for `CN(C)[C@H](CNC(=O)C[C@H](c1cccnc1)C1(C(F)(F)F)CC1)Cc1ccc2[nH]ncc2c1Cl` [Compound 192, (R)-N-((S)-3-(4-chloro-1H-indazol-5-yl)-2-(dimethylamino)propyl)-3-(pyridin-3-yl)-3-(1-(trifluoromethyl)cyclopropyl)propanamide], the concentration for half-maximal inhibition (IC50) is below 300 nM.
Same read-out and setting: next, `CN(C)[C@H](CNC(=O)C[C@H](c1cccnc1)C1(C(F)(F)F)CC1)Cc1ccc2[nH]ncc2c1F` [Compound 195, (R)-N-((S)-2-(dimethylamino)-3-(4-fluoro-1H-indazol-5-yl)propyl)-3-(pyridin-3-yl)-3-(1-(trifluoromethyl)cyclopropyl)propanamide]: below 300 nM.
Consider `Cc1c(C[C@@H](CNC(=O)C[C@H](c2ccncc2)C2(C(F)(F)F)CC2)N(C)C)ccc2[nH]ncc12` [Compound 196, (R)-N-((S)-2-(dimethylamino)-3-(4-methyl-1H-indazol-5-yl)propyl)-3-(pyridin-4-yl)-3-(1-(trifluoromethyl)cyclopropyl)propanamide], for which the IC50 is below 300 nM.
Same read-out and setting: the value for `Cc1c(C[C@@H](CNC(=O)C[C@H](c2cccnc2)C2(C(F)(F)F)CC2)N(C)C)ccc2[nH]ncc12` [Compound 197, (R)-N-((S)-2-(dimethylamino)-3-(4-methyl-1H-indazol-5-yl)propyl)-3-(pyridin-3-yl)-3-(1-(trifluoromethyl)cyclopropyl)propanamide] was below 300 nM.
`Cc1c(C[C@@H](CNC(=O)C[C@H](c2cccnc2)C2(C)CC2)N(C)C)ccc2[nH]ncc12` [Compound 199, (S)-N-((S)-2-(dimethylamino)-3-(4-methyl-1H-indazol-5-yl)propyl)-3-(1-methylcyclopropyl)-3-(pyridin-3-yl)propanamide]: the half-maximal inhibitory concentration (IC50) is below 300 nM.
Take `CN[C@H](CNC(=O)C[C@H](c1cccnc1)C1(C(F)(F)F)CC1)Cc1ccc2[nH]ncc2c1` [Compound 200, (R)-N-((S)-3-(1H-indazol-5-yl)-2-(methylamino)propyl)-3-(pyridin-3-yl)-3-(1-(trifluoromethyl)cyclopropyl)propanamide]: the IC50 under setting [1] lay in the range of 300 to 3000 nM.
On the same count and under the same terms, next, `N[C@H](CNC(=O)C[C@H](c1cccnc1)C1(C(F)(F)F)CC1)Cc1ccc2[nH]ncc2c1` [Compound 201, (R)-N-((S)-2-amino-3-(1H-indazol-5-yl)propyl)-3-(pyridin-3-yl)-3-(1-(trifluoromethyl)cyclopropyl)propenamide dihydrochloride salt]: above 3000 nM.
`Cc1cc([C@@H](CC(=O)NC[C@H](Cc2ccc3[nH]ncc3c2)N(C)C)C2(C(F)(F)F)CC2)ccn1` [Compound 202, (R)-N-((S)-2-(dimethylamino)-3-(1H-indazol-5-yl)propyl)-3-(2-methylpyridin-4-yl)-3-(1-(trifluoromethyl)cyclopropyl)propanamide]: the IC50 under setting [1] was below 300 nM.
For `Cc1cncc([C@H](CC(=O)NC[C@H](Cc2ccc3[nH]ncc3c2)N(C)C)C2(C(F)(F)F)CC2)c1` [Compound 203, (S)-N-((S)-2-(dimethylamino)-3-(1H-indazol-5-yl)propyl)-3-(5-methylpyridin-3-yl)-3-(1-(trifluoromethyl)cyclopropyl)propanamide], the concentration for half-maximal inhibition (IC50) was 300 to 3000 nM.
Still for that read-out and setting: next, `CN(C)[C@H](CNC(=O)C[C@H](c1cccnc1)C1(C)CC1)Cc1ccc2[nH]ncc2c1` [Compound 204, (S)-N-((S)-2-(dimethylamino)-3-(1H-indazol-5-yl)propyl)-3-(1-methylcyclopropyl)-3-(pyridin-3-yl)propanamide]: below 300 nM.
